The source of these data is patent publication US20240166652A1, “MODULATORS OF THE INTEGRATED STRESS PATHWAY” (Calico Life Sciences LLC, priority 2017, published 2024).

The experiment has as its system ATF4 luciferase reporter in HEK293T cells. Kind of experiment: ATF4-Luc assay (ATF4 luciferase reporter, tunicamycin-treated HEK293T cells). In kind it is cell-based, human. The note with it: Homo sapiens, HEK-293T; HEK293T cells carrying the ATF4 luciferase reporter, 1 μg/mL tunicamycin, 7 hours. On the technique in general: In a reporter assay the amount or activity of a reporter protein is the signal.
The EC50 is the concentration at which the effect is half-maximal. As to `O=C(COc1ccc(Cl)c(F)c1)NC12CC(NC(=O)OCCc3cccc(Cl)c3)(C1)C2` [Compound 165, 2-(3-chlorophenyl)ethyl {3-[2-(4-chloro-3-fluorophenoxy)-acetamido]bicyclo[1.1.1]pentan-1-yl}carbamate], the EC50 lay within 50 to 250 nM.
In the case of `O=C(COc1ccc(Cl)c(F)c1)NC12CC(NC(=O)OCCCc3cccc(Cl)c3)(C1)C2` [Compound 166, 3-(3-chlorophenyl)propyl {3-[2-(4-chloro-3-fluorophenoxy)acetamido]-bicyclo[1.1.1]pentan-1-yl}carbamate] it was 250 to 500 nM; in that of `O=C(CCOCc1cccc(Cl)c1)NC12CC(NC(=O)COc3ccc(Cl)c(Cl)c3)(C1)C2` [Compound 167, 3-[(3-chlorophenyl)methoxy]-N-{3-[2-(3,4-dichlorophenoxy)acetamido]-bicyclo[1.1.1]pentan-1-yl}propanamide], 500 to 2000 nM.
The figure for `O=C(CCCOc1cccc(Cl)c1)NC12CC(NC(=O)COc3ccc(Cl)c(Cl)c3)(C1)C2` [Compound 168, 4-(3-chlorophenoxy)-N-{3-[2-(3,4-dichlorophenoxy)acetamido]-bicyclo[1.1.1]pentan-1-yl}butanamide] is 50 to 250 nM; for `O=C(CCOc1cccc(Cl)c1)NC12CC(NC(=O)COc3ccc(Cl)c(Cl)c3)(C1)C2` [Compound 169, 3-(3-chlorophenoxy)-N-{3-[2-(3,4-dichlorophenoxy)acetamido]bicyclo-[1.1.1]pentan-1-yl}propanamide] it is 250 to 500 nM.
`CN(C)c1cccc(CCOCC(=O)NC23CC(NC(=O)COc4ccc(Cl)c(Cl)c4)(C2)C3)c1` [Compound 170, 2-(3,4-dichlorophenoxy)-N-[3-(2-{2-[3-(dimethylamino)phenyl]ethoxy}-acetamido)bicyclo[1.1.1]pentan-1-yl]acetamide]: the 50% effective concentration (EC50) was > 2000 nM.
In the case of `O=C(COc1cccc(Cl)c1)NC12CC(NC(=O)COc3ccc(Cl)c(Cl)c3)(C1)C2` [Compound 171, 2-(3-chlorophenoxy)-N-{3-[2-(3,4-dichlorophenoxy)acetamido]-bicyclo[1.1.1]pentan-1-yl}acetamide] it was < 10 nM; in that of `O=C(COc1ccc(Cl)c(Cl)c1)NC12CC(NC(=O)OCc3cccc(Cl)c3)(C1)C2` [Compound 172, (3-chlorophenyl)methyl {3-[2-(3,4-dichlorophenoxy)acetamido]-bicyclo[1.1.1]pentan-1-yl}carbamate], 250 to 500 nM.
Regarding `O=C(COc1ccc(Cl)c(Cl)c1)NC12CC(NC(=O)OCCc3cccc(Cl)c3)(C1)C2` [Compound 173, 2-(3-chlorophenyl)ethyl {3-[2-(3,4-dichlorophenoxy)acetamido]-bicyclo[1.1.1]pentan-1-yl}carbamate], the EC50 was 50 to 250 nM.
As for `O=C(COc1ccc(Cl)c(Cl)c1)NC12CC(NC(=O)OCCCc3cccc(Cl)c3)(C1)C2` [Compound 174, 3-(3-chlorophenyl)propyl {3-[2-(3,4-dichlorophenoxy)acetamido]-bicyclo[1.1.1]pentan-1-yl}carbamate], the EC50 was 250 to 500 nM.
For `O=C(COc1ccc(Cl)cc1)NC12CCC(NC(=O)COc3ccc(Cl)cc3)(C1)C2` [Compound 176, N,N′-(bicyclo[2.1.1]hexane-1,4-diyl)bis[2-(4-chlorophenoxy)acetamide]], the EC50 lay within 10 to 50 nM.
In the case of `O=C(COc1ccc(Cl)c(F)c1)NC12CCC(NC(=O)COc3ccc(Cl)c(F)c3)(C1)C2` [Compound 177, N,N′-(bicyclo[2.1.1]hexane-1,4-diyl)bis[2-(4-chloro-3-fluorophenoxy)acetamide]] it was < 10 nM.
Regarding `O=C(COc1ccc(Cl)cc1)NC12CCCC(NC(=O)COc3ccc(Cl)cc3)(C1)C2` [Compound 178, N,N′-(bicyclo[3.1.1]heptane-1,5-diyl)bis[2-(4-chlorophenoxy)acetamide]], the EC50 is > 2000 nM.
For `O=C(COc1ccc(Cl)c(F)c1)NC12CCCC(NC(=O)COc3ccc(Cl)c(F)c3)(C1)C2` [Compound 179, N,N′-(bicyclo[3.1.1]heptane-1,5-diyl)bis[2-(4-chloro-3-fluorophenoxy)acetamide]], the concentration giving a half-maximal response (EC50) was > 2000 nM.
Take `O=C(COc1ccc(Cl)c(F)c1)NC12CCC(NC(=O)OCc3ccccc3)(C1)C2` [Compound 180, benzyl {4-[2-(4-chloro-3-fluorophenoxy)acetamido]bicyclo[2.1.1]hexan-1-yl}carbamate]: the EC50 was 50 to 250 nM.
In the case of `O=C(COc1ccc(Cl)c(F)c1)NC12CCCC(NC(=O)OCc3ccccc3)(C1)C2` [Compound 181, benzyl {5-[2-(4-chloro-3-fluorophenoxy)acetamido]bicyclo[3.1.1]heptan-1-yl}carbamate] it was > 2000 nM; in that of `O=C(COc1ccc(Cl)c(F)c1)NC12CC(NC(=O)COc3ccn4nccc4n3)(C1)C2` [Compound 182, 2-(4-chloro-3-fluorophenoxy)-N-(3-{2-[(pyrazolo[1,5-a]pyrimidin-5-yl)oxy]acetamido}bicyclo[1.1.1]pentan-1-yl)acetamide], > 2000 nM; in that of `O=C(COc1ccc(F)c(F)c1)NC12CC(NC(=O)COc3ccc(Cl)c(F)c3)(C1)C2` [Compound 183, 2-(4-chloro-3-fluorophenoxy)-N-{3-[2-(3,4-difluorophenoxy)acetamido]-bicyclo[1.1.1]pentan-1-yl}acetamide], < 10 nM.
With `Cc1n[nH]c2cc(OCC(=O)NC34CC(NC(=O)COc5ccc(Cl)c(F)c5)(C3)C4)ccc12` [Compound 184, 2-(4-chloro-3-fluorophenoxy)-N-(3-{2-[(3-methyl-1H-indazol-6-yl)oxy]acetamido}bicyclo[1.1.1]pentan-1-yl)acetamide], the EC50 was in the range of 50 to 250 nM.
In the case of `O=C(COc1ccc(F)c(F)c1)NC12CC(NC(=O)COc3ccc(F)c(F)c3)(C1)C2` [Compound 185, N,N′-(bicyclo[1.1.1]pentane-1,3-diyl)bis[2-(3,4-difluorophenoxy)acetamide]], the 50% effective concentration (EC50) lay within 10 to 50 nM.
As for `O=C(COc1ccc(Cl)c(F)c1)NC12CC(NC(=O)COc3ccc(Cl)c(F)c3)(C1)C2` [Compound 186, N,N′-(bicyclo[1.1.1]pentane-1,3-diyl)bis[2-(4-chloro-3-fluorophenoxy)acetamide]], the 50% effective concentration (EC50) was < 10 nM.
On to `O=C(COc1ccc(Cl)c(F)c1)NC12CCC(NC(=O)COc3ccc4cn[nH]c4c3)(C1)C2` [Compound 187, 2-(4-chloro-3-fluorophenoxy)-N-(4-{2-[(1H-indazol-6-yl)oxy]acetamido}bicyclo[2.1.1]hexan-1-yl)acetamide], for which the 50% effective concentration (EC50) lay in the range of 50 to 250 nM.
For `O=C(COc1ccc(C(F)(F)F)nc1)NC12CCC(NC(=O)COc3ccc(Cl)c(F)c3)(C1)C2` [Compound 188, 2-(4-chloro-3-fluorophenoxy)-N-[4-(2-{[6-(trifluoromethyl)pyridin-3-yl]oxy}acetamido)bicyclo[2.1.1]hexan-1-yl]acetamide], the 50% effective concentration (EC50) was in the range of 50 to 250 nM.
Take `CC(C)(C)[Si](C)(C)OCCN(C(=O)COc1ccc(Cl)c(F)c1)C12CC(NC(=O)COc3ccc(Cl)c(F)c3)(C1)C2` [Compound 189, N-(2-{[tert-butyl(dimethyl)silyl]oxy}ethyl)-2-(4-chloro-3-fluorophenoxy)-N-{3-[2-(4-chloro-3-fluorophenoxy)acetamido]bicyclo[1.1.1]pentan-1-yl}acetamide]: the EC50 lay within 500 to 2000 nM.
Consider `O=C(COc1ccc(Cl)c(F)c1)NC12CC(N(CCO)C(=O)COc3ccc(Cl)c(F)c3)(C1)C2` [Compound 190, 2-(4-chloro-3-fluorophenoxy)-N-{3-[2-(4-chloro-3-fluorophenoxy)acetamido]-bicyclo[1.1.1]pentan-1-yl}-N-(2-hydroxyethyl)acetamide], for which the 50% effective concentration (EC50) fell in the range of 500 to 2000 nM.
For `O=C(COc1ccc(Cl)c(F)c1)NC12CC(N(CCO)C(=O)COc3ccc(C(F)(F)F)nc3)(C1)C2` [Compound 191, N-{3-[2-(4-chloro-3-fluorophenoxy)acetamido]bicyclo[1.1.1]pentan-1-yl}-N-(2-hydroxyethyl)-2-{[6-(trifluoromethyl)pyridin-3-yl]oxy}acetamide], the EC50 is 500 to 2000 nM.
As for `O=C(COc1ccc(Cl)c(F)c1)NC12CC(NC(=O)OCc3ccccc3)(C1)C2` [Compound 192, benzyl {3-[2-(4-chloro-3-fluorophenoxy)acetamido]bicyclo[1.1.1]pentan-1-yl}carbamate], the EC50 lay in the range of 500 to 2000 nM.
Consider `O=C(COc1ccc(Cl)c(Cl)c1)NC12CCC(NC(=O)OCc3ccccc3)(C1)C2` [Compound 193, benzyl {4-[2-(3,4-dichlorophenoxy)acetamido]bicyclo[2.1.1]hexan-1-yl}carbamate], for which the concentration for a half-maximal effect (EC50) is > 2000 nM.
As to `O=C(COc1ccc(Cl)c(Cl)c1)NC12CCCC(NC(=O)OCc3ccccc3)(C1)C2` [Compound 194, benzyl {5-[2-(3,4-dichlorophenoxy)acetamido]bicyclo[3.1.1]heptan-1-yl}carbamate], the EC50 is > 2000 nM.
On to `O=C(COc1ccc(Cl)c(Cl)c1)NC12CCC(NC(=O)COc3cc(F)c4cn[nH]c4c3)(C1)C2` [Compound 195, 2-(3,4-dichlorophenoxy)-N-(4-{2-[(4-fluoro-1H-indazol-6-yl)oxy]acetamido}-bicyclo[2.1.1]hexan-1-yl)acetamide], for which the EC50 was 10 to 50 nM.
`O=C(COc1ccc(C(F)(F)F)nc1)NC12CCC(NC(=O)COc3ccc(Cl)c(Cl)c3)(C1)C2` [Compound 196, 2-(3,4-dichlorophenoxy)-N-[4-(2-{[6-(trifluoromethyl)pyridin-3-yl]oxy}acetamido)bicyclo[2.1.1]hexan-1-yl]acetamide]: the EC50 was in the range of 10 to 50 nM.
Turning to `CN(C(=O)COc1ccc(Cl)c(Cl)c1)C12CC(NC(=O)COc3ccc(F)c(Cl)c3)(C1)C2` [Compound 197, N-{3-[2-(3-chloro-4-fluorophenoxy)acetamido]bicyclo[1.1.1]pentan-1-yl}-2-(3,4-dichlorophenoxy)-N-methylacetamide], the EC50 lay within 50 to 250 nM.
The figure for `CN(C(=O)COc1ccc(Cl)c(Cl)c1)C12CC(NC(=O)COc3ccc(Cl)c(Cl)c3)(C1)C2` [Compound 198, 2-(3,4-dichlorophenoxy)-N-{3-[2-(3,4-dichlorophenoxy)acetamido]-bicyclo[1.1.1]pentan-1-yl}-N-methylacetamide] is 50 to 250 nM.
